According to PubChem BioAssay AID1963978 (Molecular Pharmacology Branch, DTP, NCI, 2024):

Tested on: 616215-338-R-J1-PDC spheroids with HUVEC/MSC, viability
Assay: Anticancer human tumor 616215-338-R-J1-PDC patient-derived colon adenocarcinoma cell line growth inhibition [PI3K]
Details: for IC50: curve of first compound; for viability, T/C: stronger effect = lower value
Description: Combinatorial screen of targeted agents with the PI3K inhibitors inavolisib, alpelisib, duvelisib, and copanlisib in multi-cell type tumor spheroids
A high-throughput screen of multi-cell type tumor spheroids was designed to identify active combinations of targeted small molecules and PI3K pathway inhibitors. Complex spheroids include a stromal component modeled by human endothelial cells (HUVEC) and fibroblasts modeled by human mesenchymal stem cells (MSCs). The concentration ranges selected for each drug and investigational agent were based upon clinically achievable concentrations if the clinical Cmax of the agent was known.
Compounds. The drugs and investigational agents: inavolisib (NSC800729), alpelisib (NSC765974), duvelisib (NSC772469), copanlisib (NSC816437), ipatasertib (NSC767898), afuresertib (NSC778305), talazoparib (NSC767125), sapanisertib (NSC764658), selumetinib (NSC741078), tovorafenib (DAY101, NSC766906), vemurafenib (NSC761431), ravoxertinib (NSC781343), sotorasib (NSC818433), MRTX1133 (NSC 836407), abemaciclib (NSC 768073), palbociclib (NSC758247), venetoclax (NSC 766270), SY5609 (NSC837396), enzalutamide (NSC755605), and darolutamide (NSC825331), were obtained from the National Cancer Institute (NCI) Developmental Therapeutics Program Chemical Repository. The FDA-approved anticancer drug set is available from the NCI Developmental Therapeutics Program. […] The stock solutions were prepared in dimethyl sulfoxide (DMSO, Sigma-Aldrich, St. Louis, MO, cat. D2650) at 800-fold the tested concentration and stored at -70 degrees C prior to their use. All drugs and investigational agents were tested over a range starting from a high concentration at or near the clinical Cmax and decreasing in half-log increments. If the clinical Cmax for an agent had not been determined, the highest concentration tested was 10 microM.
Cell Culture. All cells were maintained in an incubator at 37 degrees C and 5% CO2 with 95% humidity. The PDC lines were cultured according to standard operating procedures established by the NCI PDMR (https://pdmr.cancer.gov/sops/default.htm). All PDCs were thawed and cultured in Matrigel-coated flasks prepared with a working solution of 1X Ham's F-12 nutrient mix, without supplementation (Invitrogen, Waltham, MA, cat. 11765054), 100 U/mL penicillin-streptomycin (Invitrogen, cat. 15140122), and 2.5% Matrigel (Corning Inc., Corning, NY, cat. 354248) for the first three passages. The 354836-022-R-J1-PDC, 475296-252-R-J1-PDC, and 997726-040-R-J2-PDC lines were cultured in 6A media, which includes advanced DMEM/F-12 (Thermo Fisher Scientific, cat. 12634028), 10 mM HEPES (Thermo Fisher Scientific, cat. 15630080), 1X GlutaMAX supplement (Thermo Fisher Scientific, cat. 35050061), 0.1 mg/mL primocin (InvivoGen, San Diego, CA, cat. ant-pm-2), 10% defined fetal bovine serum, heat inactivated (HyClone Laboratories Inc., Logan, UT, cat. SH30070.03HI), 50% L-WRN conditioned media (ATCC, cat. CRL-3276), 1.25 mM N-Acetyl-L-cysteine (Sigma-Aldrich, cat. A9165), 10 mM nicotinamide (Sigma-Aldrich, cat. N0636), 1X B-27 supplement (Thermo Fisher Scientific, cat. 17504044), 1X N-2 supplement (Thermo Fisher Scientific, cat. 17502048), and 10 microM Y-27632 dihydrochloride (Tocris Bioscience, Bristol, United Kingdom, cat. 1254). The 624824-186-R-J2-PDC line was cultured in 6C/Colon 1B media, which includes all 6A media components plus 50 ng/mL human EGF recombinant protein (Thermo Fisher Scientific, cat. PHG0311). […]
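Further: spheroids exposed to agents for seven days before the viability read.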

Q: How did the IC50 (second compound 0.00316 µM) turn out when `C[C@@H](NC(=O)c1ncnc(N)c1Cl)c1ncc(C(=O)Nc2cc(C(F)(F)F)c(Cl)cn2)s1` + COc1c(OCCCN2CCOCC2)ccc2c3n(c(=NC(=O)c4cnc(N)nc4)nc12)CCN3 was run?
A: > 10 µM

Q: What about the IC50 (second compound 0.01 µM) of the same molecule?
A: > 10 µM

Q: And the IC50 (second compound 0.0316 µM)?
A: > 10 µM

Q: What about the IC50 (second compound 0.1 µM) of the same molecule?
A: 6.86 µM

Q: What about the IC50 (second compound 0.316 µM) of the same molecule?
A: 0.072 µM

Q: And the IC50 (second compound 1 µM)?
A: < 0.0316 µM

Q: What about the viability, T/C (second compound 0.00316 µM, first compound 0.0316 µM) of the same molecule?
A: 94.6%

Q: And the viability, T/C (second compound 0.00316 µM, first compound 0.1 µM)?
A: 117%

Q: And the viability, T/C (second compound 0.00316 µM, first compound 0.316 µM)?
A: 117%

Q: And the viability, T/C (second compound 0.00316 µM, first compound 1 µM)?
A: 109%

Q: What about the viability, T/C (second compound 0.00316 µM, first compound 3.16 µM) of the same molecule?
A: 104%

Q: And the viability, T/C (second compound 0.00316 µM, first compound 10 µM)?
A: 80.2%

Q: What about the viability, T/C (second compound 0.01 µM, first compound 0.0316 µM) of the same molecule?
A: 96.3%

Q: And the viability, T/C (second compound 0.01 µM, first compound 0.1 µM)?
A: 102%

Q: And the viability, T/C (second compound 0.01 µM, first compound 0.316 µM)?
A: 116%

Q: And the viability, T/C (second compound 0.01 µM, first compound 1 µM)?
A: 115%

Q: What about the viability, T/C (second compound 0.01 µM, first compound 3.16 µM) of the same molecule?
A: 112%

Q: And the viability, T/C (second compound 0.01 µM, first compound 10 µM)?
A: 89.3%

Q: And the viability, T/C (second compound 0.0316 µM, first compound 0.0316 µM)?
A: 97.9%

Q: And the viability, T/C (second compound 0.0316 µM, first compound 0.1 µM)?
A: 106%

Q: And the viability, T/C (second compound 0.0316 µM, first compound 0.316 µM)?
A: 106%

Q: What about the viability, T/C (second compound 0.0316 µM, first compound 1 µM) of the same molecule?
A: 113%

Q: And the viability, T/C (second compound 0.0316 µM, first compound 3.16 µM)?
A: 91.2%

Q: And the viability, T/C (second compound 0.0316 µM, first compound 10 µM)?
A: 53.3%

Q: And the viability, T/C (second compound 0.1 µM, first compound 0.0316 µM)?
A: 114%

Q: What about the viability, T/C (second compound 0.1 µM, first compound 0.1 µM) of the same molecule?
A: 103%

Q: What about the viability, T/C (second compound 0.1 µM, first compound 0.316 µM) of the same molecule?
A: 97.6%

Q: And the viability, T/C (second compound 0.1 µM, first compound 1 µM)?
A: 97.2%

Q: And the viability, T/C (second compound 0.1 µM, first compound 3.16 µM)?
A: 74.7%

Q: And the viability, T/C (second compound 0.1 µM, first compound 10 µM)?
A: 37.7%

Q: What about the viability, T/C (second compound 0.316 µM, first compound 0.0316 µM) of the same molecule?
A: 54%

Q: What about the viability, T/C (second compound 0.316 µM, first compound 0.1 µM) of the same molecule?
A: 48.4%

Q: What about the viability, T/C (second compound 0.316 µM, first compound 0.316 µM) of the same molecule?
A: 40.2%

Q: What about the viability, T/C (second compound 0.316 µM, first compound 1 µM) of the same molecule?
A: 32.2%

Q: And the viability, T/C (second compound 0.316 µM, first compound 3.16 µM)?
A: 28.4%

Q: And the viability, T/C (second compound 0.316 µM, first compound 10 µM)?
A: 8.73%

Q: And the viability, T/C (second compound 1 µM, first compound 0.0316 µM)?
A: 24.4%

Q: What about the viability, T/C (second compound 1 µM, first compound 0.1 µM) of the same molecule?
A: 19.7%

Q: And the viability, T/C (second compound 1 µM, first compound 0.316 µM)?
A: 16.2%

Q: What about the viability, T/C (second compound 1 µM, first compound 1 µM) of the same molecule?
A: 11.3%

Q: What about the viability, T/C (second compound 1 µM, first compound 3.16 µM) of the same molecule?
A: 6.09%

Q: And the viability, T/C (second compound 1 µM, first compound 10 µM)?
A: 1.64%
